Assay results taken from patent US10494610B2, “Three dimensional matrix for cancer stem cells” (UNIVERSITY OF SOUTH CAROLINA, priority 2013, dated 2019).

What was measured:
[1] = system: 4T1 mouse breast carcinoma cells; assay: Tumorsphere formation, size and cell number of cells encapsulated in the gel; type: cell-based; details: 9 days; for tumorsphere formation: 4T1 in 5 kPa PEGDA gel with peptide conjugated (conj) or dissolved (dis); for cell number density compared with the gel without peptide: 4T1 in PEGDA gel with peptide conjugated (conj) or dissolved (dis)
Experimental: 4T1 and MCF7 tumor cells were cultured in RMPI-1640 medium with 10% FBS under 5% CO2 at 37° C. Cells were trypsinized after reaching 70% confluency. PEGDA macromer was dissolved in PBS and sterilized by filtration with a 0.2 μm filter. Next, 1.4×10^5/mL 4T1 or MCF7 cells suspended in PBS were added to the macromer solution with final PEGDA concentrations ranging 5-25 wt % and mixed gently with a pre-sterilized glass rod. The cell-suspended hydrogel precursor solution was crosslinked with UV for 10 min. After crosslinking, the gel was cut into disks and incubated in stem cell culture medium in ultra-low attachment tissue culture plates under 5% CO2. The stem cell medium consisted of DMEM-F12 supplemented with 0.4% bovine serum albumin (BSA), 5 μg/mL insulin, 40 ng/mL basic fibroblast growth factor (bFGF), 20 ng/mL EGF, 5% horse serum, 100 U/mL penicillin, and 100 μg/mL streptomycin.
To determine cell viability, gels were stained with cAM/EthD live/dead dyes 2 days after encapsulation to image live and dead cells, respectively. Stained samples were imaged with an inverted fluorescent microscope (Nikon Eclipse Ti-ε, Nikon, Melville, N.Y.). Cell viability was quantified by dividing the image into smaller squares and counting the number of live and dead cells. At each time point, the gel samples were removed from the culture media and stained for imaging. Samples were rinsed twice with PBS and fixed with 4% paraformaldehyde for 3 h. After fixation, cells were permeabilized using PBS containing 0.1% Triton X-100 for 5 min. After rinsing, cells were incubated with Alexa 488 phalloidin (1:200 dilution) and DAPI (1:5000 dilution) to stain actin filaments of the cell cytoskeleton and cell nuclei, respectively. Stained samples were imaged with a Nikon Eclipse Ti-ε inverted fluorescent microscope. For visualization of cell uniformity, a confocal fluorescent microscope (Zeiss LSM-510 META Axiovert, Carl Zeiss, Germany) was used to obtain 2D images (90 μm thick layers) of the stained gels in the direction of thickness. For determination of cell number, the gel samples were homogenized, cells were lysed, and aliquots were used to measure the double stranded DNA (dsDNA) content using a Quant-it PicoGreen assay. Briefly, an aliquot (100 μL) of the working solution was added to 100 μL of the cell lysate and incubated for 4 min at ambient conditions. The fluorescence of the solution was measured with a plate reader (Synergy HT, Bio-Tek, Winooski, Vt.) at emission and excitation wavelength of […], respectively. Measured fluorescent intensities were correlated to cell numbers using a calibration curve constructed with 4T1 or MCF7 cells of known concentration ranging from zero to […].
The tumor cells were cultured in RMPI-1640 medium with 10% FBS under 5% CO2 at 37° C. Cells were trypsinized after reaching 70% confluency. The synthesized acrylamide-terminated peptides were added to the PEGDA macromer solution and the mixture was sterilized by filtration (220 nm filter). Next, 1.4×10^5/ml cells (4T1, MCF7, or MCF10a) were added to the macromer solution and mixed gently with a pre-sterilized glass rod. The cell-suspended hydrogel precursor solution was crosslinked with UV for 10 min as described above. After cross-linking, the gel was cut into disks and incubated in stem cell culture medium on ultra-low attachment tissue culture plates under 5% CO2. The stem cell medium consisted of DMEM-F12 supplemented with 0.4% BSA, 5 μg/ml insulin, 40 ng/ml bFGF, 20 ng/ml EGF, 5% horse serum, 100 U/ml penicillin, and 100 μg/ml streptomycin. For growing tumorspheres in suspension, trypsinized cells (4T1 or MCF7) were cultured on ultra-low attachment tissue culture plates with stem cell culture medium under 5% CO2 at 37° C.
To determine cell viability, gels were stained with cAM and EthD dyes after cell encapsulation to image live and dead cells, respectively. […]

4T1 cells = assay: RT-qPCR mRNA expression of CSC related markers in encapsulated cells; type: cell-based, mouse; details: 4T1 in PEGDA gel with peptide, 9 days
Experimental: Total cellular RNA of the gel samples was isolated using TRIzol (Invitrogen). 250 ng of the extracted purified RNA was reverse transcribed to cDNA by SuperScript II Reverse Transcriptase (Invitrogen) with the random primers. The obtained cDNA was subjected to real time quantitative polymerase chain reaction (RT-qPCR) amplification with appropriate gene specific primers. RT-qPCR was performed to analyze the differential expression of CSC markers CD44 (4T1 and MCF7), CD24 (4T1), ABCG2 (4T1 and MCF7), and SCA1 (4T1) genes with SYBR green RealMasterMix (Eppendorf, Hamburg, Germany) using Bio-Rad iCycler PCR system (Bio-Rad, Hercules, Calif.). The expression level of GAPDH gene was used as an internal control. The primers for real time PCR were designed by Primer 3 software. The following forward and reverse primers synthesized by Integrated DNA technologies (Coralville, Iowa) were used: mouse GAPDH: forward 5′-CATGGCCTTCCGTGTTCCTA-3′ (SEQ ID NO: 1) and reverse 5′-CCTGCTTCACCACCTTCTTGA-3′ (SEQ ID NO: 2); mouse CD44: forward 5′-GAATGTAACCTGCCGCTACG-3′ (SEQ ID NO: 3) and reverse 5′-GGA GGT GTT GGA CGT GAC-3′ (SEQ ID NO: 4); mouse CD24: forward 5′-CTTCTGGCACTGCTCCTACC-3′ (SEQ ID NO: 5) and reverse 5′-GAGAGAGAGCCAGGAGACCA-3′ (SEQ ID NO: 6); mouse ABCG2: forward 5′-AGCAGCAAGGAAAGATCCAA-3′ (SEQ ID NO: 7) and reverse 5′-GGAATACCGAGGCTGATGAA-3′ (SEQ ID NO: 8); mouse SCA1: forward 5′-TGG ACA CTT CTC ACA CTA-3′ (SEQ ID NO: 9) and reverse 5′-CAGAGCAAGAGGGTCTGCAGGAG-3′ (SEQ ID NO: 10); human GAPDH forward 5′-GAGTCAACGGATTTGGTCGT-3′ (SEQ ID NO: 11) and reverse 5′-TTGATTTTGGAGGGATCTCG-3′ (SEQ ID NO: 12); human CD44 forward 5′-GGCTTTCAATAGCACCTTGC-3′ (SEQ ID NO: 13) and reverse 5′-ACACCCCTGTGTTGTTTGCT-3′ (SEQ ID NO: 14); human ABCG2 forward 5′-CACCTTATTGGCCTCAGGAA-3′ (SEQ ID NO: 15) and reverse 5′-CCTGCTTGGAAGGCTCTATG-3′ (SEQ ID NO: 16). The relative gene expression levels were quantified by the 2^-ddCT method as described. The relative gene expressions were expressed as fold difference compared with that at time zero.
Total cellular RNA of the gel samples was isolated using TRIzol (Invitrogen). 250 ng of the extracted purified RNA was reverse transcribed to cDNA by SuperScript II Reverse Transcriptase (Invitrogen) with the random primers. The obtained cDNA was subjected to real time quantitative polymerase chain reaction (RT-qPCR) amplification with the appropriate gene specific primers. RT-qPCR was performed to analyze the differential expression of CSC markers CD44, CD24, ABCG2, and SCA1 genes with SYBR green RealMasterMix (Eppendorf, Hamburg, Germany) using Bio-Rad iCycler PCR system (Bio-Rad, Hercules, Calif.). The expression level of GAPDH gene was used as an internal control. The primers for real time PCR were designed by Primer 3 software. The forward and reverse primer sequences, listed in the table below, were synthesized by Integrated DNA technologies (Coralville, Iowa). The relative gene expression levels were quantified by the 2^(−ΔΔCT) method. Briefly, ΔCT was calculated as ΔCT=CT^target gene−CT^GAPDH. ΔΔCT of the target gene was calculated as ΔΔCT=ΔCT^experimental group−ΔCT^reference group. The reference was the first time point (right after cells were encapsulated in the gel). The relative gene expression (fold-change compared to the reference time point) was calculated as 2^(−ΔΔCT).

Row | Sequence | tumorsphere formation [1] | cell number density compared with the gel without peptide [1] | ABCG2 mRNA marker expression (4T1 cells) | CD24 mRNA marker expression (4T1 cells) | CD44 mRNA marker expression (4T1 cells) | SCA1 mRNA marker expression (4T1 cells)
1 | RLVSYNGIIFFLK [dis CD44BP, CD44BP dissolved in the gel and in the culture medium] | did not inhibit sphere formation | lower | high expressions | low expression | high expressions | high expressions
2 | VLFGFLKIYSRIN [conj s-CD44BP, reference compound] | no significant effect | lower | high expressions | low expression | high expressions | high expressions
